According to publication PMC5786060, “Discovery of new molecular entities able to strongly interfere with Hsp90 C-terminal domain” (Scientific Reports, 2018):
Where two headings read alike, the source gives them in different places.

Columns and labels:
[1] = test system: U937 (human monocytic cell line from histiocytic lymphoma); assay: Anti-proliferation MTT assay, U937 cells; assay type: cell-based; details: for IC50: Homo sapiens
Procedure: (§1) Jurkat and U937 (2 × 10^4 /well) cells were seeded in triplicate in 96 well−plates and incubated for the 24 h or 48 h in the absence or presence of different concentrations of compounds 1, 4–5, 7–15, 21–22, 26 (concentration between 10 µM to 100 µM) or Novobiocin (concentration between 50 µM to 500 µM). Stock solutions of compounds (100 mM in DMSO) were diluted just before addition to the sterile culture medium and the final concentration of DMSO was 0.15% (v/v).
(§2) The number of viable cells was determined by using a […] (MTT, Sigma-Aldrich) conversion assay, according to the method described by Terracciano et al. 2016[27],[28]. After the indicated treatment, the cells were incubated for additional 3 h at 37 °C, with 25 µL of MTT (5 mg/mL in PBS). The formazan crystals thus formed were dissolved in 100 μl of buffer containing 50% (v/v) N,N-dimethylformamide, 20% SDS (pH 4.5). The absorbance was read at 570 nm using an Absorbance Microplate Reader (Titertek multiskan MCC7340, LabSystems, Vienna, VA, USA) equipped with a 620 nm filter. The cell population growth inhibition was also tested by cytometric counting (trypan blu exclusion). IC50 values were calculated from cell viability dose−response curves and defined as the concentration resulting in 50% inhibition of cell survival, compared to control cells treated with DMSO (see Supplementary Material Tables S2 and S3).

recombinant human Hsp90α = molecular target: T1, recombinant human Hsp90α (Homo sapiens, UniProt P07900); assay: SPR binding to immobilized recombinant Hsp90α; details: Biacore 3000, immobilized full length Hsp90α, 25 °C, 1:1 Langmuir model, read-out: KD (nM) ± SD
T1 construct: purchased Abcam
Procedure: Recombinant human Hsp90α was purchased from Abcam (Abcam, Cambridge, UK). […] SPR analyses were carried out according to our previously published data[25]–[28],[32],[50]. Surface Plasmon Resonance Spectroscopy (SPR) analyses were performed to determine binding of various molecules to full length Hsp90α using a Biacore 3000 optical biosensor equipped with research-grade CM5 sensor chips (GE Healthcare). Hsp90α was coupled to the surface of a CM5 sensor chip using standard amine-coupling protocols, according to the manufacturer’s instructions.
The protein (100 µg mL^−1 in 10 mM CH3COONa, pH 5.0) was immobilized on individual sensor chip surfaces at a flow rate of 5 µL min^−1 to obtain densities of 8–12 kRU. For the experiments a recombinant Hsp90α surface, a BSA surface and one unmodified reference surface were prepared for simultaneous analyses. […] For each molecule a six-point concentration series were set up, spanning […], and for each sample the complete binding study was performed using triplicate aliquots. Changes in mass, due to the binding response, were recorded as resonance units (RU). To obtain the dissociation constant (KD) (Table 1), these responses were fit to a 1:1 Langmuir binding model by nonlinear regression using the BiaEvaluation software program provided by GE Healthcare. Simple interactions were suitably fitted to a single-site bimolecular interaction model (A + B = AB), yielding a single KD. (Table 1). SPR experiments were performed at 25 °C, using a flow rate of 50 µL min^−1, with 60 s monitoring of association and 300 s monitoring of dissociation.

[2] = test system: Jurkat (human leukemic T lymphocyte); assay: Anti-proliferation MTT assay, Jurkat cells; assay type: cell-based; details: for IC50: Homo sapiens
Procedure: as §1, §2

[3] = test system: Hsp90-dependent client proteins Raf-1, p-Akt, p-Erk and p53; Hsc70, Hsp90, Hsp70 in Jurkat cells; assay: Western blot of Hsp90 client proteins and heat shock proteins; assay type: cell-based, human; details: 24 h, 17-AAG 2 µM, compounds 25 and 50 µM
Procedure: Following the treatment, the cells were trypsinized and homogenized on ice in RIPA lysis buffer (50 mM Hepes, 10 mM EDTA, 150 mM NaCl, 1% NP-40, 0.5% sodium deoxycholate, 0.1% SDS, pH 7.4), supplemented with protease inhibitors cocktail (Sigma-Aldrich). After centrifugation at 4 °C to removed cell debris, an equal protein amount (40 µg) was separated by SDS-PAGE under denatured reducing conditions and was then transferred to nitrocellulose membranes. The blots were blocked with 3% BSA and were incubated at 4 °C overnight with primary antibodies: anti-Hsp 70; anti-Hsp 90α/ß, anti-Raf1, anti-pAkt, anti Erk, anti pErk, anti-p53, anti Hsc70, anti GRP94, anti cyclin A antibodies (Santa Cruz Biotechnology, Inc., Delaware, CA, USA), anti-actin antibody (Sigma-Aldrich) anti CDK2, anti Cyclin D1 and anti CDK4 antibodies (Cell Signaling Technology, Leiden, Netherlands). Appropriate peroxidase-conjugate secondary antibodies were used to detect primary antibodies, and enzymatic signals were visualized by chemiluminescence reagent Pierce ECL (Thermo Scientific, Rockford, IL, USA). Quantitative densitometry analyses were performed using a ImageQuant LAS 4000 system (GE Healthcare Life Sciences,NY, USA).

Jurkat cells = assay: Cell cycle distribution / hypodiploid cells by PI flow cytometry; assay type: cell-based, human; details: for hypodiploid cells: 200 µM
Procedure: Cell DNA content was measured by propidium iodide (PI) incorporation into permeabilized cells, as described by Nicoletti et al. Briefly, the Jurkat cells were treated for 24 h or 48 h with compounds used at the different concentrations. In particular, the compounds 7 or 10 were used at 25 or 50 µM, novobiocin was used at 50, 100 or 200 µM. The treated cells were harvested and incubated with a PI solution (0.1% sodium citrate, 0.1% Triton X-100 and 50 μg/ml of prodium iodide, Sigma-Aldrich, 10 μg/ml Rnase A) for 30 min at room temperature.
The cells were analyzed using FACScalibur flow cytometry (Becton Dickinson, San Josè, CA. The distribution of cells in cell cycle phases was determined using ModFit LT analysis software (Becton Dickinson). The percentage of apoptotic cells is represented as the percentage of hypodiploid cells accumulated at the sub G0/G1 phase of the cell cycle and was quantified using the CellQuest software (Becton Dickinson). Results were expressed as a mean ± SD of three experiments performed in triplicate.

[4] = U-937, 24 h, read-out: IC50 (µM) 24h
[5] = U-937, 48 h, read-out: IC50 (µM) 48h

Compound `COC(=O)c1ccc(NC(=O)CCCCCn2c(=O)[nH]c3ccccc3c2=O)cc1` [Compound 13] has an IC50 [1, 4] of 98.3 µM, an IC50 [1, 5] of 97 µM and a Kd (recombinant human Hsp90α) of 300 ± 19.3 nM. For the same compound, the IC50 ([2]; 24 h, read-out: IC50 (µM) 24h) was 56.8 µM and the IC50 ([2]; 48 h, read-out: IC50 (µM) 48h) was 54 µM.
Compound `NC(=O)c1ccc(NC(=O)CCCCCn2c(=O)[nH]c3ccccc3c2=O)cc1` [Compound 14] has an IC50 [1, 4] of over 100 µM, an IC50 [1, 5] of over 100 µM and a Kd (recombinant human Hsp90α) of 260 ± 8.4 nM. The IC50 ([2]; 24 h, read-out: IC50 (µM) 24h) was over 100 µM and the IC50 ([2]; 48 h, read-out: IC50 (µM) 48h) was over 100 µM.
For `O=C1CCS(=O)(=O)N1c1ccc(S(=O)(=O)NCc2cccc3c2OCO3)cc1` [Compound 15], the “IC50 (µM) 24h” value [1] was “not active”, the “IC50 (µM) 48h” value [1] was “not active” and the Kd (recombinant human Hsp90α) was 4.8 ± 2.9 nM. The “IC50 (µM) 24h” value ([2]; 24 h) was “not active” and the “IC50 (µM) 48h” value ([2]; 48 h) was “not active”.
In the case of `C=CCNC1=C2C[C@@H](C)C[C@H](OC)[C@H](O)[C@@H](C)/C=C(\C)[C@H](OC(N)=O)[C@@H](OC)/C=C\C=C(/C)C(=O)NC(=CC1=O)C2=O` [Compound 17-AAG, 17-(Allylamino)-17-demethoxygeldanamycin, reference compound], the “effect on Hsp90 and Hsp70 protein levels (heat shock response)” value [3] is reported as “significant up-regulation of Hsp90 and Hsp70 expression levels”.
Compound `COC(=O)c1ccc(Oc2c[nH]nc2-c2ccc(OC)cc2O)cc1` [Compound 20] has a Kd (recombinant human Hsp90α) of 14.2 ± 4.9 nM.
`COc1cc(/C=N/NC(=O)NC(=O)c2ccccc2Cl)ccc1O` [Compound 21] was tested, and the “IC50 (µM) 24h” value [1] was “not active”, the “IC50 (µM) 48h” value [1] was “not active” and the Kd (recombinant human Hsp90α) was 13.2 ± 2.3 nM. For the same compound, the “IC50 (µM) 24h” value ([2]; 24 h) was “not active” and the “IC50 (µM) 48h” value ([2]; 48 h) was “not active”.
In the case of `CN(CCc1ccncc1)C(=O)c1ccc(N2C(=O)CCS2(=O)=O)cc1` [Compound 22], the “IC50 (µM) 24h” value [1] is reported as “not active”, the “IC50 (µM) 48h” value [1] is reported as “not active” and the Kd (recombinant human Hsp90α) is reported as 4.1 ± 2.6 nM. For the same compound, the “IC50 (µM) 24h” value ([2]; 24 h) was “not active” and the “IC50 (µM) 48h” value ([2]; 48 h) was “not active”.
`O=C(c1ccc2c(c1)OCO2)N1CCC(c2nc3ccccc3[nH]2)CC1` [Compound 26] showed an IC50 [1, 4] of over 100 µM, an IC50 [1, 5] of over 100 µM and a Kd (recombinant human Hsp90α) of 25.7 ± 8.4 nM. It also gave an IC50 ([2]; 24 h, read-out: IC50 (µM) 24h) of over 100 µM and an IC50 ([2]; 48 h, read-out: IC50 (µM) 48h) of over 100 µM.
For `CO[C@@H]1[C@@H](OC(N)=O)[C@@H](O)[C@H](Oc2ccc3c(O)c(NC(=O)c4ccc(O)c(CC=C(C)C)c4)c(=O)oc3c2C)OC1(C)C` [Novobiocin, reference compound], the hypodiploid cells (Jurkat cells; 24 h) was 14%, the hypodiploid cells (Jurkat cells; 48 h) was 30% and the “effect on cell cycle progression” value (Jurkat cells; 50 and 100 µM, 24 or 48 h) was “did not affect cell cycle progression”. For the same compound, the IC50 [1, 4] was 232 µM, the IC50 [1, 5] was 190 µM and the IC50 ([2]; 24 h, read-out: IC50 (µM) 24h) was 171 µM. For the same compound, the IC50 ([2]; 48 h, read-out: IC50 (µM) 48h) was 150 µM.
